According to patent US12545652B2, “Crystalline forms of a TYK2 inhibitor” (Sareum Limited, priority 2020, dated 2026):

How the values were obtained:
[1] = Dynamic vapour sorption (DVS); type: physicochemical; conditions: 25° C.
Experimental: Sorption isotherms were obtained using a Hiden Isochema moisture sorption analyser (model IGAsorp), controlled by IGAsorp Systems Software V6.50.48. The sample was maintained at a constant temperature (25° C.) by the instrument controls. The humidity was controlled by mixing streams of dry and wet nitrogen, with a total flow of 250 ml·min^−1. The instrument was verified for relative humidity content by measuring three calibrated Rotronic salt solutions (10-50-88%). The weight change of the sample was monitored as a function of humidity by a microbalance (accuracy +/−0.005 mg). A defined amount of sample was placed in a tared mesh stainless steel basket under ambient conditions. A full experimental cycle typically consisted of three scans (sorption, desorption and sorption) at a constant temperature (25° C.) and 10% RH intervals over a 0-90% range (60 minutes for each humidity level).

[2] = Anti-solvent addition crystallisation at 60° C., observations and form fate by XRPD; type: physicochemical; conditions: for Crystalline Form fate by XRPD: Addition at 60° C.
Experimental: The equilibration of Form A in a range of solvents with thermal modulation indicated a range of suitable solvents and anti-solvents. Consequently, Form A was dissolved in a range of four solvents at an elevated temperature, clarified and charged with anti-solvent at the elevated temperature to assess the propensity of the compound towards anti-solvent-driven crystallisation.
2-(2,6-dichlorophenyl)-5-[4-(1,1-dioxo-1,4-thiazinane-4-carbonyl)anilino]oxazole-4-carboxamide Form A, 4×150-152 mg, was weighed into four crystallisation tubes. Four different solvents (see Table 8) were then charged to the solids and the resulting mixtures heated to 60° C. Where suspensions persisted, additional solvent was charged to achieve dissolution. Upon dissolution of the four mixtures, the solutions were clarified and aliquots containing ca. 30 mg of the compound were charged to four crystallisation tubes.
To each of the four aliquots was charged an anti-solvent (see Table 8), ca. 5 vol., at 60° C. and immediate observations were made. Observations were made after equilibration for 1 hour before additional anti-solvent, 5 vol., was charged to all mixtures. Where suspensions or immiscible mixtures had formed, no further anti-solvent was charged. To all solutions and hazes, additional anti-solvent up to 20 vol. total charge was added.
The mixtures were equilibrated at 60° C. for another hour before cooling to 25° C. over ca. 3 hours and equilibrated for ca. 14½ hours. […] Upon isolation, all solids were dried in vacuo under air for ca. 1 hour and then dried in the oven in vacuo at 45° C. for 70 hours.

DVS total weight gain upon sorption ([1]; from 0 to 90% RH): ca. 3.25 wt %
DVS weight reduction upon the first desorption ([1]; from 50 to 0% RH): ca. 2.75 wt %
Observation on outcome ([2]; ID A1, THF/water, 4:1 10 vol., Cyclohexane, 25° C., 20 vol, 19 Hrs): Susp.
Observation on outcome ([2]; ID A1, THF/water, 4:1 10 vol., Cyclohexane, 60° C., 5 vol. anti-solvent, 1 Hr): Susp.
Observation on outcome ([2]; ID A1, THF/water, 4:1 10 vol., Cyclohexane, 60° C., 5 vol. anti-solvent, Immediate): Gum
Observation on outcome ([2]; ID A1, THF/water, 4:1 10 vol., Cyclohexane, 60° C., 10 vol. anti-solvent): Susp.
Observation on outcome ([2]; ID A2, THF/water, 4:1 10 vol., Heptane, 25° C., 20 vol, 19 Hrs): Gummy
Observation on outcome ([2]; ID A2, THF/water, 4:1 10 vol., Heptane, 60° C., 5 vol. anti-solvent, 1 Hr): Susp.
Observation on outcome ([2]; ID A2, THF/water, 4:1 10 vol., Heptane, 60° C., 5 vol. anti-solvent, Immediate): Gum
Observation on outcome ([2]; ID A2, THF/water, 4:1 10 vol., Heptane, 60° C., 10 vol. anti-solvent): Susp.
Observation on outcome ([2]; ID A3, THF/water, 4:1 10 vol., Benzotrifluoride, 25° C., 20 vol, 19 Hrs): Susp.
Observation on outcome ([2]; ID A3, THF/water, 4:1 10 vol., Benzotrifluoride, 60° C., 5 vol. anti-solvent, 1 Hr): Susp.
Observation on outcome ([2]; ID A3, THF/water, 4:1 10 vol., Benzotrifluoride, 60° C., 5 vol. anti-solvent, Immediate): Susp.
Observation on outcome ([2]; ID A3, THF/water, 4:1 10 vol., Benzotrifluoride, 60° C., 10 vol. anti-solvent): Susp.
Observation on outcome ([2]; ID A4, THF/water, 4:1 10 vol., 2-Chlorobutane, 25° C., 20 vol, 19 Hrs): Susp.
Observation on outcome ([2]; ID A4, THF/water, 4:1 10 vol., 2-Chlorobutane, 60° C., 5 vol. anti-solvent, 1 Hr): Susp.
Observation on outcome ([2]; ID A4, THF/water, 4:1 10 vol., 2-Chlorobutane, 60° C., 5 vol. anti-solvent, Immediate): Susp.
Observation on outcome ([2]; ID A4, THF/water, 4:1 10 vol., 2-Chlorobutane, 60° C., 10 vol. anti-solvent): Susp.
Observation on outcome ([2]; ID B1, THF 25 vol., Cyclohexane, 25° C., 20 vol, 19 Hrs): Susp.
Observation on outcome ([2]; ID B1, THF 25 vol., Cyclohexane, 60° C., 5 vol. anti-solvent, 1 Hr): Susp.
Observation on outcome ([2]; ID B1, THF 25 vol., Cyclohexane, 60° C., 5 vol. anti-solvent, Immediate): Gum→Soln.
Observation on outcome ([2]; ID B1, THF 25 vol., Cyclohexane, 60° C., 10 vol. anti-solvent): Susp.
Observation on outcome ([2]; ID B2, THF 25 vol., Heptane, 25° C., 20 vol, 19 Hrs): Susp.
Observation on outcome ([2]; ID B2, THF 25 vol., Heptane, 60° C., 5 vol. anti-solvent, 1 Hr): Susp.
Observation on outcome ([2]; ID B2, THF 25 vol., Heptane, 60° C., 5 vol. anti-solvent, Immediate): Gum→Soln.
Observation on outcome ([2]; ID B2, THF 25 vol., Heptane, 60° C., 10 vol. anti-solvent): Susp.
Observation on outcome ([2]; ID B3, THF 25 vol., Benzotrifluoride, 25° C., 20 vol, 19 Hrs): Susp.
Observation on outcome ([2]; ID B3, THF 25 vol., Benzotrifluoride, 60° C., 5 vol. anti-solvent, 1 Hr): Susp.
Observation on outcome ([2]; ID B3, THF 25 vol., Benzotrifluoride, 60° C., 5 vol. anti-solvent, Immediate): Soln.
Observation on outcome ([2]; ID B3, THF 25 vol., Benzotrifluoride, 60° C., 10 vol. anti-solvent): Susp.
Observation on outcome ([2]; ID B4, THF 25 vol., 2-Chlorobutane, 25° C., 20 vol, 19 Hrs): Susp.
Observation on outcome ([2]; ID B4, THF 25 vol., 2-Chlorobutane, 60° C., 5 vol. anti-solvent, 1 Hr): Susp.
Observation on outcome ([2]; ID B4, THF 25 vol., 2-Chlorobutane, 60° C., 5 vol. anti-solvent, Immediate): Soln.
Observation on outcome ([2]; ID B4, THF 25 vol., 2-Chlorobutane, 60° C., 10 vol. anti-solvent): Susp.
Observation on outcome ([2]; ID C1, Nitromethane 50 vol., Cyclohexane, 25° C., 20 vol, 19 Hrs): Bi. Susp.
Observation on outcome ([2]; ID C1, Nitromethane 50 vol., Cyclohexane, 60° C., 5 vol. anti-solvent, 1 Hr): Immiscible
Observation on outcome ([2]; ID C1, Nitromethane 50 vol., Cyclohexane, 60° C., 5 vol. anti-solvent, Immediate): Immiscible
Observation on outcome ([2]; ID C1, Nitromethane 50 vol., Cyclohexane, 60° C., 10 vol. anti-solvent): Immiscible
Observation on outcome ([2]; ID C2, Nitromethane 50 vol., Heptane, 25° C., 20 vol, 19 Hrs): Bi. Susp.
Observation on outcome ([2]; ID C2, Nitromethane 50 vol., Heptane, 60° C., 5 vol. anti-solvent, 1 Hr): Soln.
Observation on outcome ([2]; ID C2, Nitromethane 50 vol., Heptane, 60° C., 5 vol. anti-solvent, Immediate): Soln.
Observation on outcome ([2]; ID C2, Nitromethane 50 vol., Heptane, 60° C., 10 vol. anti-solvent): Soln.
Observation on outcome ([2]; ID C2, Nitromethane 50 vol., Heptane, 60° C., 15 vol. anti-solvent): Soln.
Observation on outcome ([2]; ID C2, Nitromethane 50 vol., Heptane, 60° C., 20 vol. anti-solvent): Soln.
Observation on outcome ([2]; ID C3, Nitromethane 50 vol., Benzotrifluoride, 25° C., 20 vol, 19 Hrs): Susp.
Observation on outcome ([2]; ID C3, Nitromethane 50 vol., Benzotrifluoride, 60° C., 5 vol. anti-solvent, 1 Hr): Soln.
Observation on outcome ([2]; ID C3, Nitromethane 50 vol., Benzotrifluoride, 60° C., 5 vol. anti-solvent, Immediate): Soln.
Observation on outcome ([2]; ID C3, Nitromethane 50 vol., Benzotrifluoride, 60° C., 10 vol. anti-solvent): Soln.
Observation on outcome ([2]; ID C3, Nitromethane 50 vol., Benzotrifluoride, 60° C., 15 vol. anti-solvent): Soln.
Observation on outcome ([2]; ID C3, Nitromethane 50 vol., Benzotrifluoride, 60° C., 20 vol. anti-solvent): Soln.
Observation on outcome ([2]; ID C4, Nitromethane 50 vol., 2-Chlorobutane, 25° C., 20 vol, 19 Hrs): Susp.
Observation on outcome ([2]; ID C4, Nitromethane 50 vol., 2-Chlorobutane, 60° C., 5 vol. anti-solvent, 1 Hr): Soln.
Observation on outcome ([2]; ID C4, Nitromethane 50 vol., 2-Chlorobutane, 60° C., 5 vol. anti-solvent, Immediate): Soln.
Observation on outcome ([2]; ID C4, Nitromethane 50 vol., 2-Chlorobutane, 60° C., 10 vol. anti-solvent): Soln.
Observation on outcome ([2]; ID C4, Nitromethane 50 vol., 2-Chlorobutane, 60° C., 15 vol. anti-solvent): Soln.
Observation on outcome ([2]; ID C4, Nitromethane 50 vol., 2-Chlorobutane, 60° C., 20 vol. anti-solvent): Soln.
Observation on outcome ([2]; ID D1, MeCN/water, 4:1 55 vol., Cyclohexane, 25° C., 20 vol, 19 Hrs): Immiscible
Observation on outcome ([2]; ID D1, MeCN/water, 4:1 55 vol., Cyclohexane, 60° C., 5 vol. anti-solvent, 1 Hr): Immiscible
Observation on outcome ([2]; ID D1, MeCN/water, 4:1 55 vol., Cyclohexane, 60° C., 5 vol. anti-solvent, Immediate): Immiscible
Observation on outcome ([2]; ID D1, MeCN/water, 4:1 55 vol., Cyclohexane, 60° C., 10 vol. anti-solvent): Immiscible
Observation on outcome ([2]; ID D2, MeCN/water, 4:1 55 vol., Heptane, 25° C., 20 vol, 19 Hrs): Bi. Susp.
Observation on outcome ([2]; ID D2, MeCN/water, 4:1 55 vol., Heptane, 60° C., 5 vol. anti-solvent, 1 Hr): Immiscible
Observation on outcome ([2]; ID D2, MeCN/water, 4:1 55 vol., Heptane, 60° C., 5 vol. anti-solvent, Immediate): Immiscible
Observation on outcome ([2]; ID D2, MeCN/water, 4:1 55 vol., Heptane, 60° C., 10 vol. anti-solvent): Immiscible
Observation on outcome ([2]; ID D3, MeCN/water, 4:1 55 vol., Benzotrifluoride, 25° C., 20 vol, 19 Hrs): Susp.
Observation on outcome ([2]; ID D3, MeCN/water, 4:1 55 vol., Benzotrifluoride, 60° C., 5 vol. anti-solvent, 1 Hr): Soln.
Observation on outcome ([2]; ID D3, MeCN/water, 4:1 55 vol., Benzotrifluoride, 60° C., 5 vol. anti-solvent, Immediate): Soln.
Observation on outcome ([2]; ID D3, MeCN/water, 4:1 55 vol., Benzotrifluoride, 60° C., 10 vol. anti-solvent): Haze
Observation on outcome ([2]; ID D3, MeCN/water, 4:1 55 vol., Benzotrifluoride, 60° C., 15 vol. anti-solvent): Immiscible
Observation on outcome ([2]; ID D3, MeCN/water, 4:1 55 vol., Benzotrifluoride, 60° C., 20 vol. anti-solvent): Immiscible
Observation on outcome ([2]; ID D4, MeCN/water, 4:1 55 vol., 2-Chlorobutane, 25° C., 20 vol, 19 Hrs): Bi. Susp.
Observation on outcome ([2]; ID D4, MeCN/water, 4:1 55 vol., 2-Chlorobutane, 60° C., 5 vol. anti-solvent, 1 Hr): Soln.
Observation on outcome ([2]; ID D4, MeCN/water, 4:1 55 vol., 2-Chlorobutane, 60° C., 5 vol. anti-solvent, Immediate): Soln.
Observation on outcome ([2]; ID D4, MeCN/water, 4:1 55 vol., 2-Chlorobutane, 60° C., 10 vol. anti-solvent): Haze
Observation on outcome ([2]; ID D4, MeCN/water, 4:1 55 vol., 2-Chlorobutane, 60° C., 15 vol. anti-solvent): Haze
Observation on outcome ([2]; ID D4, MeCN/water, 4:1 55 vol., 2-Chlorobutane, 60° C., 20 vol. anti-solvent): Haze
Crystalline Form fate by XRPD ([2]; MeCN/water, 4:1 55 vol., 2-Chlorobutane): Form A
Crystalline Form fate by XRPD ([2]; MeCN/water, 4:1 55 vol., Benzotrifluoride): Form A
Crystalline Form fate by XRPD ([2]; MeCN/water, 4:1 55 vol., Heptane): Form A
Crystalline Form fate by XRPD ([2]; Nitromethane 50 vol., 2-Chlorobutane): Form C +
Crystalline Form fate by XRPD ([2]; Nitromethane 50 vol., Benzotrifluoride): Form B
Crystalline Form fate by XRPD ([2]; Nitromethane 50 vol., Heptane): Form B
Crystalline Form fate by XRPD ([2]; THF 25 vol., 2-Chlorobutane): Form B
Crystalline Form fate by XRPD ([2]; THF 25 vol., Benzotrifluoride): Form B
Crystalline Form fate by XRPD ([2]; THF 25 vol., Heptane): Form B
Crystalline Form fate by XRPD ([2]; THF/water, 4:1 10 vol., 2-Chlorobutane): Form A
Crystalline Form fate by XRPD ([2]; THF/water, 4:1 10 vol., Benzotrifluoride): Form A
SMILES: NC(=O)c1nc(-c2c(Cl)cccc2Cl)oc1Nc1ccc(C(=O)N2CCS(=O)(=O)CC2)cc1 [Form A, 2-(2,6-dichlorophenyl)-5-[4-(1,1-dioxo-1,4-thiazinane-4-carbonyl)anilino]oxazole-4-carboxamide]
